Legend:
PTGER2 (EP2) = PTGER2 (EP2) (Homo sapiens (Human), UniProt P43116); assay: hEP2 b-arrestin assay (PathHunter HEK 293 PTGER2 b-arrestin cells); type: cell-based
Method in brief: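 HEK293 cells expressing ProLink-tagged EP2 and EA-fused β-arrestin 2 (enzyme fragment complementation) were seeded 24 h, pre-incubated with compound 15 min at 37 °C, then stimulated with 5 μM PGE2 (final) for 120 min.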

PTRGER4 (EP4) = PTRGER4 (EP4) (Homo sapiens (Human), UniProt P35408); assay: hEP4 b-arrestin assay (PathHunter HEK 293 PTGER4 b-arrestin cells); type: cell-based
Chain of PTRGER4 (EP4) (P35408 whole entry, looked up, the tested form may be a part): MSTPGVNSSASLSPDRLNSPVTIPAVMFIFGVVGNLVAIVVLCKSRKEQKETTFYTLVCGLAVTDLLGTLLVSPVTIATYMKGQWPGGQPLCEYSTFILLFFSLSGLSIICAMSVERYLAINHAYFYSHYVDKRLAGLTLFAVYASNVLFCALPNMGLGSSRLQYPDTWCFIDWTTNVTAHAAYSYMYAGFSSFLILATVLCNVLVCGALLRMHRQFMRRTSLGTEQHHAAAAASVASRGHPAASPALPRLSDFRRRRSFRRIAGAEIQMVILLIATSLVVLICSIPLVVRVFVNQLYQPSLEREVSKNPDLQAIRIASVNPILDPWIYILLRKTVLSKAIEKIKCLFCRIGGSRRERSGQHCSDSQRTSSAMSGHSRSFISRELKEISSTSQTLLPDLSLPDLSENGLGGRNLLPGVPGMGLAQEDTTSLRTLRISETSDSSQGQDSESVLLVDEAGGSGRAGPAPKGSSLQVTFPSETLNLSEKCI
Method in brief: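 Stably transfected HEK293 cells carrying EP4–ProLink and β-arrestin 2–EA (β-gal fragment complementation), pre-incubated with compound 15 min at 37 °C, then stimulated with PGE2 (20 nM final) for 120 min at 37 °C. Chemiluminescence read after 1 h detection reagent at room temperature; activity per concentration expressed as percent of DMSO control.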

[1] = antagonistic activity on hEP2, mean where measured multiple times
[2] = antagonistic activity on hEP4, mean where measured multiple times
[3] = hEP2 b-arrestin assay (values without asterisk)
[4] = hEP4 b-arrestin assay (values without asterisk)

Chain of PTGER2 (EP2) (P43116 whole entry, the tested form may be a part): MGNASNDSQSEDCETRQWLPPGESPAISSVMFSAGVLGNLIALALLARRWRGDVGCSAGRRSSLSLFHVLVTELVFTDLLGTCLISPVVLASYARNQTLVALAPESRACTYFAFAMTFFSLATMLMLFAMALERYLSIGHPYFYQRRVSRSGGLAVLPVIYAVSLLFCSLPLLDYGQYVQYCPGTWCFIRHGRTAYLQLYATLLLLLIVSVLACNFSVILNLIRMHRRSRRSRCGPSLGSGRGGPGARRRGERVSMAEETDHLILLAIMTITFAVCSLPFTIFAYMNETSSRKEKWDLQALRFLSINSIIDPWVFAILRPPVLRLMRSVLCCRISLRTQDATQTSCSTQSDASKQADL

| IC50 (PTGER2 (EP2); [1]) | IC50 (PTRGER4 (EP4); [2]) | IC50 (PTGER2 (EP2); [3]) | IC50 (PTRGER4 (EP4); [4]) | SMILES |
| --- | --- | --- | --- | --- |
| 14 nM | 75 nM | – | – | Cc1cc(-c2cc(NCCn3c(C)cc4c(C)ccc(F)c43)ncn2)sc1C(=O)O [compound 45] |
| – | – | 27 nM | 35 nM | CCOc1cc(-c2cc(NCCn3c(C#N)cc4c(OC)ccc(F)c43)ncn2)ccc1C=O [Example 992, 1-{2-[6-(3-Ethoxy-4-formyl-phenyl)-pyrimidin-4-ylamino]-ethyl}-7-fluoro-4-methoxy-1H-indole-2-carbonitrile] |
| – | – | 485 nM | 167 nM | COc1ccc(F)c2c1cc(C#N)n2CCNc1cc(-c2ccc(CCC(=O)O)cc2)ncn1 [Example 1019, 3-(4-{6-[2-(2-Cyano-7-fluoro-4-methoxy-indol-1-yl)-ethylamino]-pyrimidin-4-yl}-phenyl)-propionic acid] |
| 100 nM | 769 nM | – | – | COc1ncc(-c2cc(NCCn3c(C)cc4c(OC)ccc(F)c43)ncn2)s1 [compound 3] |
| 2 nM | 897 nM | – | – | CCNc1cc(-c2cc(NCCn3c(C)cc4cccc(Cl)c43)ncn2)ccc1C(=O)O [compound 137, 4-{6-[2-(7-Chloro-2-methyl-indol-1-yl)-ethylamino]-pyrimidin-4-yl}-2-ethylamino-benzoic acid] |
| – | – | 58 nM | 143 nM | COc1ccc(F)c2c1cc(C#N)n2CCNc1cc(-c2ccnc(N3CCCC3)c2)ncn1 [Example 997, 7-Fluoro-4-methoxy-1-{2-[6-(2-pyrrolidin-1-yl-pyridin-4-yl)-pyrimidin-4-ylamino]-ethyl}-1H-indole-2-carbonitrile] |
| 27 nM | 435 nM | – | – | CCOc1cc(-c2cc(NCCn3c(C)cc4c(Cl)ccc(F)c43)ncn2)ccc1C(=O)O [compound 281] |
| 5 nM | 13 nM | – | – | CCc1cc(-c2cc(NCCn3c(C)cc4c(OC)ccc(F)c43)ncn2)sc1C(=O)O [compound 230] |
| – | – | 36 nM | 84 nM | COc1ccc(F)c2c1cc(C#N)n2CCNc1cc(-c2ccc(C(=O)O)cc2)ncn1 [Example 974, 4-{6-[2-(2-Cyano-7-fluoro-4-methoxy-indol-1-yl)-ethylamino]-pyrimidin-4-yl}-benzoic acid] |
| 20 nM | 124 nM | – | – | Cc1ccc(F)c2c1cc(C)n2CCNc1cc(-c2ccc3c(c2)CCN3)ncn1 [compound 11, [6-(2,3-Dihydro-1H-indol-5-yl)-pyrimidin-4-yl]-[2-(7-fluoro-2,4-dimethyl-indol-1-yl)-ethyl]-amine] |
| – | – | 4 nM | 2 nM | CCOc1cc(-c2cc(NCCn3c(C#N)cc4c(OC)cc(F)c(F)c43)ncn2)sc1C(=O)O [Example 943, 5-{6-[2-(2-Cyano-6,7-difluoro-4-methoxy-indol-1-yl)-ethylamino]-pyrimidin-4-yl}-3-ethoxy-thiophene-2-carboxylic acid] |
| 3 nM | 4 nM | – | – | CCOc1cc(-c2cc(NCCn3c(C)cc4c(C)c(F)cc(F)c43)ncn2)sc1C(=O)O [compound 162, 5-{6-[2-(5,7-Difluoro-2,4-dimethyl-indol-1-yl)-ethylamino]-pyrimidin-4-yl}-3-ethoxy-thiophene-2-carboxylic acid] |
| – | – | 55 nM | 131 nM | COc1ccc(F)c2c1cc(C#N)n2CCNc1cc(-c2ccnc(N3CCOCC3)c2)ncn1 [Example 1003, 7-Fluoro-4-methoxy-1-{2-[6-(2-morpholin-4-yl-pyridin-4-yl)-pyrimidin-4-ylamino]-ethyl}-1H-indole-2-carbonitrile] |
| – | – | 7 nM | 6 nM | COc1ccc(F)c2c1cc(C#N)n2CCNc1cc(-c2ccc3[nH]ccc3c2)ncn1 [Example 994, 7-Fluoro-1-{2-[6-(1H-indol-5-yl)-pyrimidin-4-ylamino]-ethyl}-4-methoxy-1H-indole-2-carbonitrile] |
| 88 nM | 740 nM | – | – | CCN1Cc2cc(-c3cc(NCCn4c(C)cc5c(C)ccc(F)c54)ncn3)ccc2C1=O [compound 206] |
| 94 nM | 895 nM | – | – | COc1cccc2c1cc(C)n2CCNc1cc(-c2ccc(CN)c(F)c2)ncn1 [compound 24] |
| 111 nM | 842 nM | – | – | CCNc1cc(-c2cc(NCCn3c(C)cc4cccc(C#N)c43)ncn2)ccc1C(=O)O [compound 163] |
| 17 nM | 572 nM | – | – | Cc1ccc(F)c2c1cc(C)n2CCNc1cc(-c2ccc3c(c2)C(C)NC3=O)ncn1 (racemic) [compound 96] |

| IC50 (PTGER2 (EP2); [1]) | IC50 (PTRGER4 (EP4); [2]) | IC50 (PTGER2 (EP2); [3]) | IC50 (PTRGER4 (EP4); [4]) | SMILES |
| --- | --- | --- | --- | --- |
| – | – | 91 nM | 407 nM | CCOc1cc(-c2cc(NCCn3c(C)cc4c(OC)ccc(F)c43)ncn2)ccc1C(=O)CO [Example 1040, 1-(2-Ethoxy-4-{6-[2-(7-fluoro-4-methoxy-2-methyl-indol-1-yl)-ethylamino]-pyrimidin-4-yl}-phenyl)-2-hydroxy-ethanone] |
| – | – | 2 nM | 4 nM | CCOc1cc(-c2cc(NCCn3c(C)cc4c(OC)ccc(F)c43)ncn2)sc1-c1nnn[nH]1 [Example 1051, {6-[4-Ethoxy-5-(1H-tetrazol-5-yl)-thiophen-2-yl]-pyrimidin-4-yl}-[2-(7-fluoro-4-methoxy-2-methyl-indol-1-yl)-ethyl]-amine] |
| 7 nM | 95 nM | – | – | COc1cccc2c1cc(C)n2CCNc1cc(-c2ccc(-c3ccn[nH]3)cc2)ncn1 [compound 75, [2-(4-Methoxy-2-methyl-indol-1-yl)-ethyl]-{6-[4-(2H-pyrazol-3-yl)-phenyl]-pyrimidin-4-yl}-amine] |
| 30 nM | 302 nM | – | – | Cc1ccc(F)c2c1cc(C)n2CCNc1cc(-c2ccc(-c3noc(=O)[nH]3)cc2)ncn1 [compound 185, 3-(4-{6-[2-(7-Fluoro-2,4-dimethyl-indol-1-yl)-ethylamino]-pyrimidin-4-yl}-phenyl)-4H-[1,2,4]oxadiazol-5-one] |
| 79 nM | 183 nM | – | – | CCCc1cc(-c2cc(NCCn3c(C)cc4c(OC)c(F)cc(F)c43)ncn2)ccc1C(=O)O [compound 373] |
| 11 nM | 197 nM | – | – | Cc1ccc(F)c2c1cc(C)n2CCNc1cc(-c2ccc(-c3ncno3)cc2)ncn1 [compound 79, [2-(7-Fluoro-2,4-dimethyl-indol-1-yl)-ethyl]-[6-(4-[1,2,4]oxadiazol-5-yl-phenyl)-pyrimidin-4-yl]-amine] |
| – | – | 31 nM | 27 nM | COc1ccc(F)c2c1cc(C#N)n2CCNc1cc(-c2ccc3c(c2)CNC(=O)N3)ncn1 [Example 970, 7-Fluoro-4-methoxy-1-{2-[6-(2-oxo-1,2,3,4-tetrahydro-quinazolin-6-yl)-pyrimidin-4-ylamino]-ethyl)-1H-indole-2-carbonitrile] |
| 45 nM | 916 nM | – | – | COc1ccc(F)c2c1cc(C)n2CCNc1cc(-c2ccc3[nH]c(=O)[nH]c3c2)ncn1 [compound 74, 5-{6-[2-(7-Fluoro-4-methoxy-2-methyl-indol-1-yl)-ethylamino]-pyrimidin-4-yl}-1,3-dihydro-2H-benzo[d]imidazol-2-one] |
| 34 nM | 500 nM | – | – | COc1ccc(F)c2c1cc(C)n2CCNc1cc(-c2cc(F)c(S(N)(=O)=O)c(F)c2)ncn1 [compound 359, 2,6-Difluoro-4-{6-[2-(7-fluoro-4-methoxy-2-methyl-indol-1-yl)-ethylamino]-pyrimidin-4-yl}-benzenesulfonamide] |
| – | – | 21 nM | 10 nM | CCOc1cc(-c2cc(NCCn3c(C#N)cc4c(OC)ccc(F)c43)ncn2)sc1C(=O)Oc1ccccc1 [Example 1049, 5-{6-[2-(2-Cyano-7-fluoro-4-methoxy-indol-1-yl)-ethylamino]-pyrimidin-4-yl}-3-ethoxy-thiophene-2-carboxylic acid phenyl ester] |
| – | – | 7 nM | 5 nM | CCOc1cc(-c2cc(NCCn3c(C#N)cc4c(OC)cccc43)ncn2)ccc1NCC(=O)O [Example 865, (4-{6-[2-(2-Cyano-4-methoxy-indol-1-yl)-ethylamino]-pyrimidin-4-yl}-2-ethoxy-phenylamino)-acetic acid] |
| 54 nM | 536 nM | – | – | COc1ccc(F)c2c1cc(C)n2CCNc1cc(-c2ccc(S(N)(=O)=O)c(Cl)c2)ncn1 [compound 172] |
| 22 nM | 477 nM | – | – | COc1ccc(F)c2c1cc(C)n2CCNc1cc(-c2ccc3cn[nH]c3c2)ncn1 [compound 58, [2-(7-Fluoro-4-methoxy-2-methyl-indol-1-yl)-ethyl]-[6-(1H-indazol-6-yl)-pyrimidin-4-yl]-amine] |
| – | – | 4 nM | 5 nM | CCOc1cc(-c2cc(NCCn3c(C#N)cc4c(OC)ccc(F)c43)ncn2)sc1C(=O)NS(=O)(=O)CC [Example 817, Ethanesulfonic acid (5-{6-[2-(2-cyano-7-fluoro-4-methoxy-indol-1-yl)-ethylamino]-pyrimidin-4-yl}-3-ethoxy-thiophene-2-carbonyl)-amide] |
| – | – | 3 nM | 7 nM | CNc1cc(-c2cc(NCCn3c(C#N)cc4c(OC)ccc(F)c43)ncn2)ccc1C(=O)O [Example 1010, 4-{6-[2-(2-Cyano-7-fluoro-4-methoxy-indol-1-yl)-ethylamino]-pyrimidin-4-yl}-2-methylamino-benzoic acid] |
| 22 nM | 412 nM | – | – | COc1ccc(F)c2c1cc(C)n2CCNc1cc(-c2ccc(N)cc2)ncn1 [Example 4, [6-(4-amino-phenyl)-pyrimidin-4-yl]-[2-(7-fluoro-4-methoxy-2-methyl-indol-1-yl)-ethyl]-amine] |
| 3 nM | 143 nM | – | – | COc1cccc2c1cc(C)n2CCNc1cc(-c2cc(C)c(C(=O)O)s2)ncn1 [compound 51] |

| SMILES | IC50 (PTGER2 (EP2); [1]) | IC50 (PTRGER4 (EP4); [2]) | IC50 (PTGER2 (EP2); [3]) | IC50 (PTRGER4 (EP4); [4]) |
| --- | --- | --- | --- | --- |
| CCCCOc1cc(-c2cc(NCCn3c(C#N)cc4c(OC)ccc(F)c43)ncn2)cc(Cl)c1C(=O)O [Example 906, 2-Butoxy-6-chloro-4-{6-[2-(2-cyano-7-fluoro-4-methoxy-indol-1-yl)-ethylamino]-pyrimidin-4-yl}-benzoic acid] | – | – | 30 nM | 3 nM |

Reference: patent US12011444B2, “N-substituted indole derivatives as PGE2 receptor modulators” (Idorsia Pharmaceuticals Ltd, priority 2015, dated 2024)
